Literature values as cited in US20170306503A1, “SYNTHETIC ACID COMPOSITIONS ALTERNATIVES TO CONVENTIONAL ACIDS IN THE OIL AND GAS INDUSTRY” (FLUID ENERGY GROUP LTD, priority 2014, published 2017).

Details: gas exposure, death in 2-3 minutes

Cl [Hydrogen chloride gas, Hydrogen chloride]
level at which death can occur: 1300-2000 PPM
